Measured values from the NIST ThermoML archive (doi:10.1016/j.fluid.2013.09.056).
± gives the expanded uncertainty stated by the source.

Details: Liquid, Closed cell (Static) method

| SMILES | vapor or sublimation pressure (283.15 K) [kPa] | vapor or sublimation pressure (293.15 K) [kPa] | vapor or sublimation pressure (303.15 K) [kPa] | vapor or sublimation pressure (313.15 K) [kPa] | vapor or sublimation pressure (323.15 K) [kPa] |
| --- | --- | --- | --- | --- | --- |
| FC(C(F)(F)F)C(F)(F)F [1,1,1,2,3,3,3-heptafluoropropane] | 278.9 ± 7 | 388 ± 7 | 524.5 ± 7 | 699 ± 7.1 | 912.4 ± 7.1 |
| FCC(F)(F)F [1,1,1,2-tetrafluoroethane] | 414 ± 7 | 571.5 ± 7 | 767 ± 7.1 | 1013 ± 7.2 | 1314.7 ± 7.3 |
| CC(F)(F)F [1,1,1-trifluoroethane] | 838.6 ± 7.1 | 1107.9 ± 7.2 | 1435.2 ± 7.3 | 1834 ± 7.5 | 2309.7 ± 7.8 |
| C=C(F)C(F)(F)F [2,3,3,3-tetrafluoro-1-propene] | 436.5 ± 7 | 591 ± 7.1 | 780.5 ± 7.1 | 1015.6 ± 7.2 | 1300.7 ± 7.2 |
